Results published in PubChem BioAssay AID1259407 (Chemical Carcinogenesis Research Information System (CCRIS), 2018).
The source made the active and inactive calls. How the calls were made is not given here.

Tested on: CCRIS mutagenicity, Ames/micronucleus/aberration tests
Experiment: CCRIS mutagenicity studies
[1] = Test System: AMES SALMONELLA TYPHIMURIUM, Strain/Indicator: TA98, Metabolic Activation: NONE, Method: STANDARD PLATE
[2] = Test System: AMES SALMONELLA TYPHIMURIUM, Strain/Indicator: TA98, Metabolic Activation: RAT, LIVER, S-9, AROCLOR 1254, Method: STANDARD PLATE
[3] = Test System: AMES SALMONELLA TYPHIMURIUM, Strain/Indicator: TA100, Metabolic Activation: NONE, Method: STANDARD PLATE
[4] = Test System: AMES SALMONELLA TYPHIMURIUM, Strain/Indicator: TA100, Metabolic Activation: RAT, LIVER, S-9, AROCLOR 1254, Method: STANDARD PLATE

In the case of CCN(CC)c1ccc(N=Nc2c(Cl)cc([N+](=O)[O-])cc2[N+](=O)[O-])cc1, the mutagenic call [1] is reported as “inactive; negative”, the mutagenic call [2] is reported as “active; positive” and the mutagenic call [3] is reported as “active; positive”. The mutagenic call [4] was “active; positive”, the mutagenic call (Test System: AMES SALMONELLA TYPHIMURIUM, Strain/Indicator: TA102, Metabolic Activation: NONE, Method: STANDARD PLATE) was “inactive; negative” and the mutagenic call (Test System: AMES SALMONELLA TYPHIMURIUM, Strain/Indicator: TA102, Metabolic Activation: RAT, LIVER, S-9, AROCLOR 1254, Method: STANDARD PLATE) was “active; positive”. For the same compound, the mutagenic call (Test System: AMES SALMONELLA TYPHIMURIUM, Strain/Indicator: TA1535, Metabolic Activation: NONE, Method: STANDARD PLATE) was “inactive; negative”, the mutagenic call (Test System: AMES SALMONELLA TYPHIMURIUM, Strain/Indicator: TA1535, Metabolic Activation: RAT, LIVER, S-9, AROCLOR 1254, Method: STANDARD PLATE) was “active; positive” and the mutagenic call (Test System: AMES SALMONELLA TYPHIMURIUM, Strain/Indicator: TA1537, Metabolic Activation: NONE, Method: STANDARD PLATE) was “inactive; negative”. For the same compound, the mutagenic call (Test System: AMES SALMONELLA TYPHIMURIUM, Strain/Indicator: TA1537, Metabolic Activation: RAT, LIVER, S-9, AROCLOR 1254, Method: STANDARD PLATE) was “active; positive”, the mutagenic call (Test System: CHINESE HAMSTER V-79, Strain/Indicator: V-79 (HGPRT)/6-THIOGUANINE, Metabolic Activation: NONE) was “inactive; negative” and the mutagenic call (Test System: CHINESE HAMSTER V-79, Strain/Indicator: V-79 (HGPRT)/6-THIOGUANINE, Metabolic Activation: RAT, LIVER, S-9, AROCLOR 1254) was “inactive; negative”. For the same compound, the mutagenic call (Test System: CHINESE HAMSTER V-79, Strain/Indicator: V-79/8-AZAGUANINE, Metabolic Activation: RAT, LIVER, S-9, AROCLOR 1254) was “inactive; negative”, the mutagenic call (Test System: CHINESE HAMSTER V-79, Strain/Indicator: V-79/8-AZAQUANINE, Metabolic Activation: NONE) was “inactive; negative” and the mutagenic call (Test System: UDS RAT HEPATOCYTES, Strain/Indicator: THY INCORP, Metabolic Activation: NONE, Method: AUTORADIOGRAPHY) was “inactive; negative”.
In the case of C=C(C)C1CC=C(C)C(O)C1 (configuration not stated), the mutagenic call (Test System: AMES SALMONELLA TYPHIMURIUM, Strain/Indicator: TA98, Metabolic Activation: HAMSTER, LIVER, S-9, AROCLOR 1254 (10%), Method: PREINCUBATION) is reported as “inactive; negative”, the mutagenic call (Test System: AMES SALMONELLA TYPHIMURIUM, Strain/Indicator: TA98, Metabolic Activation: NONE, Method: PREINCUBATION) is reported as “inactive; negative” and the mutagenic call (Test System: AMES SALMONELLA TYPHIMURIUM, Strain/Indicator: TA98, Metabolic Activation: RAT, LIVER, S-9, AROCLOR 1254 (10%), Method: PREINCUBATION) is reported as “inactive; negative”. For the same compound, the mutagenic call (Test System: AMES SALMONELLA TYPHIMURIUM, Strain/Indicator: TA100, Metabolic Activation: HAMSTER, LIVER, S-9, AROCLOR 1254 (10%), Method: PREINCUBATION) was “inactive; negative”, the mutagenic call (Test System: AMES SALMONELLA TYPHIMURIUM, Strain/Indicator: TA100, Metabolic Activation: NONE, Method: PREINCUBATION) was “inactive; negative” and the mutagenic call (Test System: AMES SALMONELLA TYPHIMURIUM, Strain/Indicator: TA100, Metabolic Activation: RAT, LIVER, S-9, AROCLOR 1254 (10%), Method: PREINCUBATION) was “inactive; negative”. For the same compound, the mutagenic call (Test System: AMES SALMONELLA TYPHIMURIUM, Strain/Indicator: TA1535, Metabolic Activation: HAMSTER, LIVER, S-9, AROCLOR 1254 (10%), Method: PREINCUBATION) was “inactive; negative”, the mutagenic call (Test System: AMES SALMONELLA TYPHIMURIUM, Strain/Indicator: TA1535, Metabolic Activation: NONE, Method: PREINCUBATION) was “inactive; negative” and the mutagenic call (Test System: AMES SALMONELLA TYPHIMURIUM, Strain/Indicator: TA1535, Metabolic Activation: RAT, LIVER, S-9, AROCLOR 1254 (10%), Method: PREINCUBATION) was “inactive; negative”. For the same compound, the mutagenic call (Test System: AMES SALMONELLA TYPHIMURIUM, Strain/Indicator: TA1537, Metabolic Activation: HAMSTER, LIVER, S-9, AROCLOR 1254 (10%), Method: PREINCUBATION) was “inactive; negative”, the mutagenic call (Test System: AMES SALMONELLA TYPHIMURIUM, Strain/Indicator: TA1537, Metabolic Activation: NONE, Method: PREINCUBATION) was “inactive; negative” and the mutagenic call (Test System: AMES SALMONELLA TYPHIMURIUM, Strain/Indicator: TA1537, Metabolic Activation: RAT, LIVER, S-9, AROCLOR 1254 (10%), Method: PREINCUBATION) was “inactive; negative”.
With O=C(O)CC(O)(CC(=O)O)C(=O)O the mutagenic call (Test System: AMES SALMONELLA TYPHIMURIUM, Strain/Indicator: TA97, Metabolic Activation: NONE, Method: PREINCUBATION) was “inactive; negative”, the mutagenic call (Test System: AMES SALMONELLA TYPHIMURIUM, Strain/Indicator: TA97, Metabolic Activation: NONE, Method: STANDARD PLATE) was “inactive; negative” and the mutagenic call (Test System: AMES SALMONELLA TYPHIMURIUM, Strain/Indicator: TA97, Metabolic Activation: RAT, LIVER, S-9, AROCLOR 1254, Method: PREINCUBATION) was “inactive; negative”. The mutagenic call (Test System: AMES SALMONELLA TYPHIMURIUM, Strain/Indicator: TA97, Metabolic Activation: RAT, LIVER, S-9, PHENOBARBITAL, Method: STANDARD PLATE) was “inactive; negative”, the mutagenic call (Test System: AMES SALMONELLA TYPHIMURIUM, Strain/Indicator: TA97, Metabolic Activation: S-9, Method: PREINCUBATION) was “inactive; negative” and the mutagenic call [1] was “inactive; negative”. The mutagenic call (Test System: AMES SALMONELLA TYPHIMURIUM, Strain/Indicator: TA98, Metabolic Activation: RAT, LIVER, S-9, PHENOBARBITAL, Method: STANDARD PLATE) was “inactive; negative”, the mutagenic call [3] was “inactive; negative” and the mutagenic call (Test System: AMES SALMONELLA TYPHIMURIUM, Strain/Indicator: TA100, Metabolic Activation: RAT, LIVER, S-9, PHENOBARBITAL, Method: STANDARD PLATE) was “inactive; negative”. For the same compound, the mutagenic call (Test System: AMES SALMONELLA TYPHIMURIUM, Strain/Indicator: TA102, Metabolic Activation: NONE, Method: PREINCUBATION) was “inactive; negative”, the mutagenic call (Test System: AMES SALMONELLA TYPHIMURIUM, Strain/Indicator: TA102, Metabolic Activation: RAT, LIVER, S-9, AROCLOR 1254, Method: PREINCUBATION) was “inactive; negative” and the mutagenic call (Test System: AMES SALMONELLA TYPHIMURIUM, Strain/Indicator: TA102, Metabolic Activation: S-9, Method: PREINCUBATION) was “inactive; negative”. For the same compound, the mutagenic call (Test System: AMES SALMONELLA TYPHIMURIUM, Strain/Indicator: TA104, Metabolic Activation: NONE, Method: STANDARD PLATE) was “inactive; negative” and the mutagenic call (Test System: AMES SALMONELLA TYPHIMURIUM, Strain/Indicator: TA104, Metabolic Activation: RAT, LIVER, S-9, PHENOBARBITAL, Method: STANDARD PLATE) was “inactive; negative”.
CC(=O)Nc1cc(O)c2ccc3cccc4ccc1c2c34 was tested, and the mutagenic call (Test System: AMES SALMONELLA TYPHIMURIUM, Strain/Indicator: TA98(1,8-DNP6), Metabolic Activation: NONE, Method: STANDARD PLATE) was “active; positive”, the mutagenic call (Test System: AMES SALMONELLA TYPHIMURIUM, Strain/Indicator: TA98(1,8-DNP6), Metabolic Activation: RAT, LIVER, S-9, AROCLOR 1254, Method: STANDARD PLATE) was “active; positive” and the mutagenic call [1] was “active; positive”. For the same compound, the mutagenic call [2] was “active; positive”, the mutagenic call (Test System: AMES SALMONELLA TYPHIMURIUM, Strain/Indicator: YG1024, Metabolic Activation: NONE, Method: STANDARD PLATE) was “active; positive” and the mutagenic call (Test System: AMES SALMONELLA TYPHIMURIUM, Strain/Indicator: YG1024, Metabolic Activation: RAT, LIVER, S-9, AROCLOR 1254, Method: STANDARD PLATE) was “active; positive”.
CCOC(=O)c1ccc(N(O)C=O)cc1 was tested, and the mutagenic call [1] was “inactive; negative”, the mutagenic call [2] was “inactive; negative” and the mutagenic call [3] was “inactive; negative”. The mutagenic call [4] was “inactive; negative”.
For NC(Cc1ccccc1)C(=O)O (configuration not stated), the mutagenic call (Test System: AMES SALMONELLA TYPHIMURIUM, Strain/Indicator: TA98, Metabolic Activation: RAT LIVER S-9, CHLOROPHENE, Method: STANDARD PLATE (COMPOUND HEATED AT 250 DEGREES CELSIUS FOR 20 MIN)) was “inactive; negative”.
